“Also recorded” adds a separate entry of the source.
How the values were obtained:
[1] = tested on: marine bacteria (ten strains); test: Bio-adhesion assay (crystal violet microplate); format: cell-based, marine bacteria isolated from Singapore fouling communities; conditions: for Effect of drugs on adhesion of bacteria: 50 μl of 125 μg ml^−1 drug + 200 μl bacteria, 2 hours
In short: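 Ten marine bacterial strains (A600 0.6 in seawater) left to attach for 2 hours at 28° C on hydrophobic and hydrophilic polystyrene, with 50 μl of drug at 125 μg ml^−1 added. Adherent cells stained with crystal violet, dye extracted with desoxycholate, A590 read; significance by t-test, in duplicate.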

Bugula neritina larvae = test: Bioassay against bryozoan larvae; format: in vivo; conditions: crude rank, best (1) to worst (8)
[2] = tested on: hard fouling (barnacles, serpulids, spirorbids); test: Field testing of coated rods; format: in vivo
[3] = in words; cited from earlier work
[4] = drug + VC50 rods vs VC50 control
[5] = drug + VC50 rods vs uncoated blank control
[6] = rods coated with drug + VC50, field test

Cc1cc2c(s1)Nc1ccccc1N=C2N1CCN(C)CC1 [ZPX, olanzapine]
Effect on bacterial adhesion ([1]; polystyrene or tissue culture surface as named in the value): prevented biofilm formation for almost all strains in the polystyrene surface | Effect of drugs on adhesion of bacteria ([1]; strain 1 (Rhodovulum), hydrophobic surface (untreated polystyrene)): *** (*** p < 0.005) | Effect of drugs on adhesion of bacteria ([1]; strain 4 (Bacillus), hydrophobic surface (untreated polystyrene)): * (Significantly less adhesion observed: * p < 0.05) | Effect of drugs on adhesion of bacteria ([1]; strain 9 (Bacillus), hydrophobic surface (untreated polystyrene)): *** (*** p < 0.005) | Effect of drugs on adhesion of bacteria ([1]; strain 14 (Vibrio), hydrophobic surface (untreated polystyrene)): ** (** p < 0.01) | Effect of drugs on adhesion of bacteria ([1]; strain 18 (Microbacterium), hydrophobic surface (untreated polystyrene)): * (Significantly less adhesion observed: * p < 0.05) | Effect of drugs on adhesion of bacteria ([1]; strain 20, hydrophobic surface (untreated polystyrene)): *** (*** p < 0.005) | Effect of drugs on adhesion of bacteria ([1]; strain 27, hydrophobic surface (untreated polystyrene)): *** (*** p < 0.005) | Effect of drugs on adhesion of bacteria ([1]; strain 28, hydrophobic surface (untreated polystyrene)): *** (*** p < 0.005) | Effect of drugs on adhesion of bacteria ([1]; strain 29, hydrophobic surface (untreated polystyrene)): * (Significantly less adhesion observed: * p < 0.05) | Effect of drugs on adhesion of bacteria ([1]; strain 30, hydrophilic surface (tissue culture treated polystyrene)): * (Significantly less adhesion observed: * p < 0.05) | Prevention of settlement of Bugula larvae (Bugula neritina larvae): 6 | Total hard fouling, mean cover ([2]; coated rods, 25 ug active ingredient per ml of VC50 coating): 17.3% | Performance against barnacles ([2]; coated rods, in words): only significant for barnacles | Overall performance in field assay ([2]; crude rank, best (1) to worst (8)): 3 | Barnacles, difference in mean cover (%), drug vs VC50 [2, 4]: −23.3% | Serpulids, difference in mean cover (%), drug vs VC50 [2, 4]: −1.67% | Spirorbids, difference in mean cover (%), drug vs VC50 [2, 4]: −12.66% | Total hard fouling, difference in mean cover (%), drug vs VC50 [2, 4]: −37.7% | Barnacles, difference in mean cover (%), drug vs control [2, 5]: −86.3% | Serpulids, difference in mean cover (%), drug vs control [2, 5]: −3.33% | Spirorbids, difference in mean cover (%), drug vs control [2, 5]: +9% | Total hard fouling, difference in mean cover (%), drug vs control [2, 5]: −80.7% | Effect of addition of drug on antifouling performance of VC50 coating (total hard fouling) ([2]; drug at 25 ug per ml of VC50 coating, in words): significantly improved performance against total hard fouling; also recorded: significantly improved the performance of VC50 coating | Barnacles Mean cover (%) [2, 6]: 6.67% | Serpulids Mean cover (%) [2, 6]: 0% | Spirorbids Mean cover (%) [2, 6]: 10.67% | Total hard fouling Mean cover (%) ([2]; rods coated with drug + VC50, field test, percentage cover within 6 mm×50 mm transect): 17.3% | Solubility [3]: practically insoluble in water
